Measured values taken from patent publication US20090238792A1, “SUPPRESSION OF POSTOPERATIVE ILEUS” (University of Pittsburgh of the Commonwealth System of …, priority 2007, published 2009).

B1: interleukin-10 (protein, UniProt P18893 19-178, looked up)
Interleukin-10: SRGQYSREDNNCTHFPVGQSHMLLELRTAFSQVKTFFQTKDQLDNILLTDSLMQDFKGYLGCQALSEMIQFYLVEVMPQAEKHGPEIKEHLNSLGEKLKTLRMRLRRCHRFLPCENKSKAVEQVKSDFNKLQDQGVYKAMNEFDIFINCIEAYMMIKMKS

Columns and labels:
[1] = test system: rats with surgical manipulation of the intestine; assay: Rat in vivo gastrointestinal transit of fluorescein-labeled dextran (geometric center); conditions: surgically manipulated rats, 24 h postoperatively, i.v. pretreatment 1 h before surgery; glycine 170 mg/kg, valine 263.5 mg/kg; SM vehicle GC=5.2±0.7
Description: (§1) Age matched animals treated with vehicle (normal saline) or valine (263.5 mg/kg, osmotic control) at appropriate time points and at equal volumes served as controls.
(§2) The rodent intestine was subjected to a standardized degree of surgical manipulation as described previously (14). Rats were anesthetized by isoflurane inhalation and the abdomen was opened by a midline laparotomy. The cecum was eventrated and laid out onto a moist gauze. Then, the intestine was inspected along its length and gently compressed using moist cotton applicators. The midline incision was closed by two layers of continuous sutures. All operative procedures were performed under sterile conditions with the intestine being handled only by instruments and never touched directly. Animals were killed at specific time points postoperatively by isoflurane anesthesia inhalation overdose and heart incision.
(§3) Methods: ACI-rats (180-220 g) underwent standardized surgical manipulation of the intestine. […] Age matched animals treated with vehicle or valine (osmotic control) at appropriate time points and at equal volumes served as controls. […] Postoperative mediator mRNA expression in the intestinal muscularis was determined by real-time RT PCR. Leukocyte extravasation was investigated in muscularis whole-mounts. Nitrite production was measured in muscularis cultures. In vivo transit of FITC-dextran was measured using geometric center analysis (GC). In vitro circular muscle contractility was assessed in a standard organ bath. Statistical analysis: unpaired Student t test, p<0.05, mean±SEM.

[2] = test system: jejunal circular smooth muscle; assay: In vitro bethanechol stimulated contractile activity of jejunal circular muscle strips; format: in vivo, rat; conditions: manipulated rats, 170 mg/kg glycine or valine pretreatment, 100 mM bethanechol; control 3.2±0.2, SM vehicle 1.9±0.1
Description: as §1, §2
Mechanical in vitro activity of the rat mid-jejunum was evaluated at 24 hours postoperatively using smooth muscle strips of the circular muscularis as described previously (rats: N=5-11) (14). After dissection and a 30 minute equilibration period, the individual muscles were incrementally stretched to L0. Then after recording spontaneous contractility for 30 minutes, dose response curves were generated using increasing concentrations of the muscarinic agonist bethanechol ([…]) for 10 minutes and intervening wash periods (KRB) of 10 minutes. The contractile response was recorded and analyzed as g/mm2/sec over a 10 minute period.
as §3

IL-6 mRNA = assay: Real-time RT-PCR of muscularis IL-6 mRNA 3 hours postoperatively; format: in vivo, rat; conditions: surgically manipulated rats, 3 hours postoperatively
Description: as §1, §2
mRNA Expression Analysis: Postoperative mediator mRNA expressions in the small intestinal muscularis were analyzed using SYBR Green two-step real-time RT-PCR as previously described, (N=4-6). […] Total mRNA extraction was performed using the guanidium-thiocyanate phenol-chloroform extraction method. Equal aliquots (200 ng) of total RNA from each sample, quantified by spectrophotometer, were processed for complimentary DNA (cDNA) synthesis. Primer sequences were used as described previously (tumor necrosis factor-a, TNF-a) (35), or designed according to published sequences 36-41, (GenBank accession numbers: NM_017008 [glyceraldehyde phosphate dehydrogenase (GAPDH)], AF233596 [cyclo-oxygenase-2 (COX-2)], NM_012967 [intercellular adhesion molecule-1 (ICAM-1)], M26744 [interleukin-6 (IL-6)] and NM_012611 [inducible nitric oxide synthase (iNOS)]), using Primer Express software (PE Applied Biosystems, Foster City, Calif.) and purchased from Life Technologies (Rockville, Md.). GAPDH was used as an endogenous control. The efficiency and equality of the real-time PCR primer pairs were determined by amplifying serial dilutions of muscularis cDNA. For each target gene different MgCl2 (3 to 5 mM) concentrations were tested to optimize the PCR amplification. […] Relative quantification was performed using the comparative CT method as described by Schmittgen et al. (42).
Methods: ACI-rats (180-220 g) underwent standardized surgical manipulation of the intestine. […] Postoperative mediator mRNA expression in the intestinal muscularis was determined by real-time RT PCR. […] Nitrite production was measured in muscularis cultures. In vivo transit of FITC-dextran was measured using geometric center analysis (GC). In vitro circular muscle contractility was assessed in a standard organ bath. […]

[3] = test system: MPO positive leukocytes in the intestinal muscularis; assay: Myeloperoxidase (MPO) histochemistry: leukocyte infiltration in muscularis whole-mounts; format: in vivo, rat; conditions: manipulated rats, 24 h postoperatively; glycine 170 mg/kg or valine (263.5 mg/kg); SM vehicle 95±6.4
Description: as §1, §2
Histochemistry and Immunohistochemistry: Leukocyte infiltration was quantified on rat whole-mounts of the intestinal muscularis as described previously (N=6-8) (43). Myeloperoxidase (MPO) positive cells were detected using a mixture of 30 mg Hanker-Yates reagent, 30 ml KRB and […] 3% hydrogen peroxide for 10 minutes. Leukocytes were counted in 5 randomly chosen areas in each specimen (3 specimen per animal) at a magnification of 200×.
as §3

nitrite (nitric oxide) = assay: Nitrite release (Griess reaction) from organ cultured muscularis; format: in vivo, rat; conditions: manipulated rats, glycine 170 mg/kg or valine
Description: as §1, §2
Tissue culture and determination of nitrite and prostanoid release in supernatant: The rat small intestine and colon were processed for tissue culture at 24 hours as described previously, (N=5-8) (25). Briefly, the muscularis was isolated by stripping the muscularis from the mucosa and then cut into small pieces and washed twice in Hank's balanced salt solution (HBSS) with 100 U/ml penicillin G and 100 μg/ml streptomycin. Aliquots of muscularis ([…]) were incubated (37° C., 5% CO2) in 6-well tissue culture plates containing 3 ml of supplemented Dulbecco's modified Eagle medium (DMEM)-F12 with 100 U/ml penicillin G and 100 μg/ml streptomycin. After an incubation period of 24 hours, 500 μl aliquots of supernatant were collected, frozen in liquid nitrogen and stored at −80° C. The muscle tissue was blotted dry, and the weight was estimated. To estimate the generation of NO from the intestinal muscularis, nitrite production was measured by the Griess reaction (44). Supernatant from the tissue culture was mixed with equal amount of Griess reagent (0.1% N-(1-naphtyl)ethyl-enediamine dihydrochloride and 1% sulfanilamide in 6% phosphoric acid; 1:1) and incubated at room temperature for 10 minutes. The absorbance at 550 nm was measured with a microplate reader and compared with standard prepared from serial dilutions of sodium nitrite. Each standard and supernatant sample was analyzed in duplicate, and the mean value of nitrite production was normalized to the tissue weight.
as §3

prostanoids [4] = assay: Prostanoid release (ELISA) from organ cultured muscularis; format: in vivo, rat; conditions: manipulated rats, glycine 170 mg/kg or valine
Description: Age matched animals treated with vehicle (normal saline) or valine (263.5 mg/kg, osmotic control) at appropriate time points and at equal volumes served as controls. The rodent intestine was subjected to a standardized degree of surgical manipulation as described previously (14). Rats were anesthetized by isoflurane inhalation and the abdomen was opened by a midline laparotomy. The cecum was eventrated and laid out onto a moist gauze. Then, the intestine was inspected along its length and gently compressed using moist cotton applicators. The midline incision was closed by two layers of continuous sutures. All operative procedures were performed under sterile conditions with the intestine being handled only by instruments and never touched directly. Animals were killed at specific time points postoperatively by isoflurane anesthesia inhalation overdose and heart incision. The synthesis of prostanoids released into the tissue culture supernatant over a period of 24 hours was assayed by ELISA. After incubation the culture median and tissue was inspected, 500 μL aliquots of supernatant were frozen in liquid nitrogen and stored at −80° C. The muscle tissue was blotted dry and weighed. Culture supernatants were assayed for the measurement of prostaglandin secretion by enzyme immunoassay (Cayman Chemicals, Ann Arbor, Mich.). The ELISA was carried out in a 1:10 and 1:30 dilution. The assay was corrected for wet tissue weights and the prostaglandin ELISA kit sensitivity was 20 pg/ml.

[5] = test system: mice subjected to surgical intestinal manipulation (SM); assay: Gastrointestinal transit (geometric center) after surgical intestinal manipulation, IL-10 treatment; format: in vivo; conditions: SM + IL-10 12.5 μg/kg s.c. before and after; control=10.6±0.3, SM=4.6±0.6
Description: (§4) Methods: Mice were subjected to surgical intestinal manipulation (SM) to induce ileus. Before and after animals were treated with IL-10 (12.5 μg/kg, s.c.). Gastrointestinal transit and organ bath measured motility. Histochemistry on jejunal muscularis whole-mounts quantified neutrophil recruitment. Muscularis mediator expressions were measured by RT-PCR, Griess reaction, ELISA and Luminex (N=4 each).

jejunal circular muscle = assay: Organ bath: jejunal circular muscle contractions to bethanechol, IL-10 treatment; format: in vivo, mice; conditions: SM + IL-10 12.5 μg/kg s.c.; 100 μM bethanechol; SM alone 59.2±4.8%
Description: as §4

[6] = test system: muscularis neutrophil recruitment; assay: Histochemistry on jejunal muscularis whole-mounts: neutrophil recruitment, IL-10 treatment; format: in vivo, mice; conditions: IL-10 treatment compared to SM with vehicle
Description: as §4

[7] = test system: IL-6, IL-1β and MCP 1 mRNAs; assay: RT-PCR of muscularis mediator mRNAs, IL-10 treatment; format: in vivo, mice; conditions: treated animals vs SM
Description: as §4

[8] = test system: GM-CSF, VEGF, IL-1α, IL-6, MCP-1 and MIP-1α; assay: Luminex mediator release from muscularis, IL-10 treatment; format: in vivo, mice; conditions: SM + IL-10 vs SM
Description: as §4

NO = assay: Griess reaction NO release from muscularis, IL-10 treatment; format: in vivo, mice; conditions: SM + IL-10; control=47.1, SM=607.7
Description: as §4

prostanoids [9] = assay: ELISA prostanoid release from muscularis, IL-10 treatment; format: in vivo, mice; conditions: SM + IL-10; control=4033.4, SM=13111
Description: as §4

Row | Molecule | geometric center (GC) of gastrointestinal transit [1] | mean contractile force, bethanechol stimulated [2] | postoperative induction of IL-6 mRNA (IL-6 mRNA) | infiltrating MPO positive leukocytes [3] | nitrite release, fold increase over control, colon (nitrite (nitric oxide); colonic muscularis 24 h organ culture, SM vehicle 10.9-fold) | nitrite release, fold increase over control, jejunum (nitrite (nitric oxide); jejunal muscularis 24 h organ culture, SM vehicle 11.4-fold) | prostanoid release, fold of control, colon (prostanoids [4]; colonic muscularis 24 h organ culture, SM 3.1-fold) | prostanoid release, fold of control, jejunum (prostanoids [4]; jejunal muscularis 24 h organ culture, SM 5.9-fold) | geometric center (GC) of gastrointestinal transit [5] | jejunal circular muscle contractions to bethanechol, % of control (jejunal circular muscle) | muscularis neutrophil recruitment [6] | induction of IL-6, IL-1β and MCP 1 mRNAs after SM [7] | mediator release (GM-CSF, VEGF, IL-1α, IL-6, MCP-1 and MIP-1α) [8] | NO release (NO) | prostanoids (PG) release (prostanoids [9])
1 | CC(C)[C@H](N)C(=O)O [valine, reference compound] | 6.2±0.5 | 2.1±0.2 g/mm2/s | no effect | 93±2.7 cells/field at 200× | 9.5 fold | 12.0 fold | 1.5 fold | 3.4 fold |  |  |  |  |  |  | 
2 | B1 |  |  |  |  |  |  |  |  | 10.8±0.4 | 93.6±21.1% | significantly less | less induction | significantly diminished | 49.1 µM/g | 3946.7 pg/mL/mg
